In US20260265329A1, “POLYPEPTIDE AND DERIVATIVE THEREOF, COMPOSITION, AND USE THEREOF” (HANGZHOU SCIWIND BIOSCIENCES CO., LTD., priority 2023, published 2026):
Starred links: 1 amine or outer side, 2 acyl side, 3 side chain; linkers in the order of their positions; H or OH if unused. Non-standard residues stand in square brackets, D forms with d. Residues, ends and D or L forms follow the SMILES beside them. *: point of attachment. C20 diacid = O=C(O)CCCCCCCCCCCCCCCCCCC(=O)*; C16 diacid = O=C(O)CCCCCCCCCCCCCCC(=O)*; γGlu = O=C(O)[C@H](CCC(=O)[*:2])N[*:1]; Hyp = O=C(O)[C@@H]1C[C@@H](O)CN1; Trx = NC[C@H]1CC[C@H](C(=O)O)CC1; AEEA = NCCOCCOCC(=O)O

Biological target: T1, human amylin receptors (Homo sapiens, UniProt O60896+P30988)
T1 construct: host or cells: CHO-K1/Ga15/AMY3 cells, further stably transfected with a CRE-luciferase plasmid
T1 sequence (P30988 25-474): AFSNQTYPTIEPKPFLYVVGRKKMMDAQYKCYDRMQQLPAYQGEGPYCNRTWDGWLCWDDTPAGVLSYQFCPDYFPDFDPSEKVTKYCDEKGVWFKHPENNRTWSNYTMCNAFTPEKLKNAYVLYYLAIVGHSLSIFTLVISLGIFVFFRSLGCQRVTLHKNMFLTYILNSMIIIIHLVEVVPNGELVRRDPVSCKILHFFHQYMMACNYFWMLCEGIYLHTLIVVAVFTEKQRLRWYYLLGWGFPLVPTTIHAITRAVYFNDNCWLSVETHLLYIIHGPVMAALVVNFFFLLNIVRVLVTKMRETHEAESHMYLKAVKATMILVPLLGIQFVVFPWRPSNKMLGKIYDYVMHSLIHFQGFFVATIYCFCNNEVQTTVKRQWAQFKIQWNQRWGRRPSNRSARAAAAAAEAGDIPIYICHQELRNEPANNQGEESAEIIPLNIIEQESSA
T1 sequence (O60896 24-148 partner): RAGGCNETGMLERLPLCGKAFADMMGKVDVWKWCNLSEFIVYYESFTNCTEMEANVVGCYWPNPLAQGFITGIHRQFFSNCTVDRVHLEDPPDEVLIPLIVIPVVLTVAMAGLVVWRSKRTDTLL
Assay: Luciferase assay in stably transfected amylin receptor/CRE-luc CHO cell line
Type: cell-based
Details: for Relative activity: EC50 ratio of Cagrilintide to the compound, Cagrilintide 100%; for EC50: amylin receptor/CRE-luc CHO cells, 24 hours incubation, luminescence

| Structure (SMILES) | Relative activity [%] | EC50 [nM] |
| --- | --- | --- |
| CC[C@H](C)[C@H](NC(=O)[C@@H]1CCCN1C(=O)[C@H](CCCCN)NC(=O)[C@H](CC(C)C)NC(=O)[C@H](CC(N)=O)NC(=O)[C@H](CC(N)=O)NC(=O)[C@H](CO)NC(=O)[C@H](CO)NC(=O)[C@H](Cc1c[nH]cn1)NC(=O)[C@H](CCCNC(=N)N)NC(=O)[C@H](CC(C)C)NC(=O)[C@H](Cc1ccccc1)NC(=O)[C@H](CC(=O)O)NC(=O)[C@H](C)NC(=O)[C@H](CC(C)C)NC(=O)[C@H](CCCNC(=N)N)NC(=O)CNC(=O)[C@H](CC(C)C)NC(=O)[C@H](C)NC(=O)[C@H](C)NC(=O)[C@@H](NC(=O)[C@H](CO)NC(=O)[C@H](CC(C)C)NC(=O)[C@H](CCC(=O)O)NC(=O)[C@H](CO)NC(=O)[C@H](C)NC(=O)CC[C@H](NC(=O)CCCCCCCCCCCCCCCCCCC(=O)O)C(=O)O)[C@@H](C)O)C(=O)N[C@@H](CC(C)C)C(=O)N1CCC[C@H]1C(=O)N1CCC[C@H]1C(=O)N[C@H](C(=O)N[C@@H](CC(N)=O)C(=O)N[C@H](C(=O)NCC(=O)N[C@@H](CO)C(=O)N[C@@H](CC(N)=O)C(=O)N[C@H](C(=O)N1C[C@H](O)C[C@H]1C(N)=O)[C@@H](C)O)C(C)C)[C@@H](C)O [M1] ({C20 diacid-γGlu}-ASELSTAALGRLADFLRHSSNNLKPILPPTNVGSNT[Hyp]-NH2) | 49 | 0.053 |
| CC[C@H](C)[C@H](NC(=O)[C@H](CC(=O)O)NC(=O)[C@H](CCCNC(=N)N)NC(=O)[C@H](CC(=O)O)NC(=O)[C@H](CCCNC(=N)N)NC(=O)[C@H](CC(=O)O)NC(=O)[C@@H](NC(=O)[C@H](Cc1ccccc1)NC(=O)[C@H](Cc1c[nH]cn1)NC(=O)[C@H](CCCNC(=N)N)NC(=O)[C@H](CC(C)C)NC(=O)[C@H](Cc1ccccc1)NC(=O)[C@H](CC(=O)O)NC(=O)[C@H](C)NC(=O)[C@H](CC(C)C)NC(=O)[C@H](CCCNC(=N)N)NC(=O)[C@H](CCC(N)=O)NC(=O)[C@@H](NC(=O)[C@H](C)NC(=O)[C@H](C)NC(=O)[C@@H](NC(=O)[C@H](CO)NC(=O)[C@H](CC(C)C)NC(=O)[C@H](CCC(N)=O)NC(=O)[C@H](CO)NC(=O)[C@H](C)NC(=O)COCCOCCNC(=O)COCCOCCNC(=O)[C@H](CC(=O)O)NC(=O)CCCCCCCCCCCCCCCCCCC(=O)O)[C@@H](C)O)[C@@H](C)O)[C@@H](C)O)C(=O)N[C@@H](CC(C)C)C(=O)N1CCC[C@H]1C(=O)N1CCC[C@H]1C(=O)N[C@H](C(=O)N[C@@H](CC(N)=O)C(=O)N[C@H](C(=O)NCC(=O)N[C@@H](CO)C(=O)N[C@@H](CC(N)=O)C(=O)N[C@H](C(=O)N1CCC[C@H]1C(N)=O)[C@@H](C)O)C(C)C)[C@@H](C)O [M19] ({C20 diacid}-D[AEEA][AEEA]ASQLSTAATQRLADFLRHFTDRDRDILPPTNVGSNTP-NH2) | 80 | 0.036 |
| CC[C@H](C)[C@H](NC(=O)[C@H](CC(=O)O)NC(=O)[C@H](CCCNC(=N)N)NC(=O)[C@H](CC(=O)O)NC(=O)[C@H](CCCNC(=N)N)NC(=O)[C@H](CC(=O)O)NC(=O)[C@@H](NC(=O)[C@H](Cc1ccccc1)NC(=O)[C@H](Cc1c[nH]cn1)NC(=O)[C@H](CCCNC(=N)N)NC(=O)[C@H](CC(C)C)NC(=O)[C@H](Cc1ccccc1)NC(=O)[C@H](CC(=O)O)NC(=O)[C@H](C)NC(=O)[C@H](CC(C)C)NC(=O)[C@H](CCCNC(=N)N)NC(=O)[C@H](CCC(N)=O)NC(=O)[C@@H](NC(=O)[C@H](C)NC(=O)[C@H](C)NC(=O)[C@@H](NC(=O)[C@H](CO)NC(=O)[C@H](CC(C)C)NC(=O)[C@H](CCC(N)=O)NC(=O)[C@H](CO)NC(=O)[C@H](C)NC(=O)COCCOCCNC(=O)COCCOCCNC(=O)[C@H]1CC[C@H](CNC(=O)CCCCCCCCCCCCCCCCCCC(=O)O)CC1)[C@@H](C)O)[C@@H](C)O)[C@@H](C)O)C(=O)N[C@@H](CC(C)C)C(=O)N1CCC[C@H]1C(=O)N1CCC[C@H]1C(=O)N[C@H](C(=O)N[C@@H](CC(N)=O)C(=O)N[C@H](C(=O)NCC(=O)N[C@@H](CO)C(=O)N[C@@H](CC(N)=O)C(=O)N[C@H](C(=O)N1CCC[C@H]1C(N)=O)[C@@H](C)O)C(C)C)[C@@H](C)O [M20] ({C20 diacid-Trx-AEEA-AEEA}-ASQLSTAATQRLADFLRHFTDRDRDILPPTNVGSNTP-NH2) | 171 |  |
| CC[C@H](C)[C@H](NC(=O)[C@@H]1CCCN1C(=O)[C@H](CCCCN)NC(=O)[C@H](CC(C)C)NC(=O)[C@H](CC(N)=O)NC(=O)[C@H](CC(N)=O)NC(=O)[C@H](CO)NC(=O)[C@H](CO)NC(=O)[C@H](Cc1c[nH]cn1)NC(=O)[C@H](CCCNC(=N)N)NC(=O)[C@H](CC(C)C)NC(=O)[C@H](Cc1ccccc1)NC(=O)[C@H](CC(=O)O)NC(=O)[C@H](C)NC(=O)[C@H](CC(C)C)NC(=O)[C@H](CCCNC(=N)N)NC(=O)[C@H](CCC(N)=O)NC(=O)[C@@H](NC(=O)[C@H](C)NC(=O)[C@H](C)NC(=O)[C@@H](NC(=O)[C@H](CO)NC(=O)[C@H](CC(C)C)NC(=O)[C@H](CCC(N)=O)NC(=O)[C@H](CO)NC(=O)[C@H](C)NC(=O)COCCOCCNC(=O)COCCOCCNC(=O)CC[C@H](NC(=O)CCCCCCCCCCCCCCCCCCC(=O)O)C(=O)O)[C@@H](C)O)[C@@H](C)O)C(=O)N[C@@H](CC(C)C)C(=O)N1CCC[C@H]1C(=O)N1CCC[C@H]1C(=O)N[C@H](C(=O)N[C@@H](CC(N)=O)C(=O)N[C@H](C(=O)NCC(=O)N[C@@H](CO)C(=O)N[C@@H](CC(N)=O)C(=O)N[C@H](C(=O)N1C[C@H](O)C[C@H]1C(N)=O)[C@@H](C)O)C(C)C)[C@@H](C)O [M31] ({C20 diacid-γGlu-AEEA-AEEA}-ASQLSTAATQRLADFLRHSSNNLKPILPPTNVGSNT[Hyp]-NH2) | 30 | 0.168 |
| CC[C@H](C)[C@H](NC(=O)[C@H](CC(=O)O)NC(=O)[C@H](CCCNC(=N)N)NC(=O)[C@H](CC(=O)O)NC(=O)[C@H](CCCNC(=N)N)NC(=O)[C@H](CC(=O)O)NC(=O)[C@@H](NC(=O)[C@H](Cc1ccccc1)NC(=O)[C@H](Cc1c[nH]cn1)NC(=O)[C@H](CCCNC(=N)N)NC(=O)[C@H](CC(C)C)NC(=O)[C@H](Cc1ccccc1)NC(=O)[C@H](CC(=O)O)NC(=O)[C@H](C)NC(=O)[C@H](CC(C)C)NC(=O)[C@H](CCCNC(=N)N)NC(=O)[C@H](CCC(N)=O)NC(=O)[C@@H](NC(=O)[C@H](C)NC(=O)[C@H](C)NC(=O)[C@@H](NC(=O)[C@H](CO)NC(=O)[C@H](CC(C)C)NC(=O)[C@H](CCC(N)=O)NC(=O)[C@H](CO)NC(=O)[C@H](C)NC(=O)[C@H](CC(=O)O)NC(=O)CCCCCCCCCCCCCCCCCCC(=O)O)[C@@H](C)O)[C@@H](C)O)[C@@H](C)O)C(=O)N[C@@H](CC(C)C)C(=O)N1CCC[C@H]1C(=O)N1CCC[C@H]1C(=O)N[C@H](C(=O)N[C@@H](CC(N)=O)C(=O)N[C@H](C(=O)NCC(=O)N[C@@H](CO)C(=O)N[C@@H](CC(N)=O)C(=O)N[C@H](C(=O)N1CCC[C@H]1C(N)=O)[C@@H](C)O)C(C)C)[C@@H](C)O [M13] ({C20 diacid}-DASQLSTAATQRLADFLRHFTDRDRDILPPTNVGSNTP-NH2) | 78 | 0.034 |

Results, then the compound that gave them:

| Relative activity [%] | EC50 [nM] | Structure (SMILES) |
| --- | --- | --- |
| 181 | 0.03 | CC[C@H](C)[C@H](NC(=O)[C@@H]1CCCN1C(=O)[C@H](CCCCN)NC(=O)[C@H](CC(C)C)NC(=O)[C@H](CC(N)=O)NC(=O)[C@H](CC(N)=O)NC(=O)[C@H](CO)NC(=O)[C@H](CO)NC(=O)[C@H](Cc1c[nH]cn1)NC(=O)[C@H](CCCNC(=N)N)NC(=O)[C@H](CC(C)C)NC(=O)[C@H](Cc1ccccc1)NC(=O)[C@H](CC(=O)O)NC(=O)[C@H](C)NC(=O)[C@H](CC(C)C)NC(=O)[C@H](CCCNC(=N)N)NC(=O)[C@H](CCC(N)=O)NC(=O)[C@@H](NC(=O)[C@H](C)NC(=O)[C@H](C)NC(=O)[C@@H](NC(=O)[C@H](CO)NC(=O)[C@H](CC(C)C)NC(=O)[C@H](CCC(N)=O)NC(=O)[C@H](CO)NC(=O)[C@H](C)NC(=O)CC[C@H](NC(=O)CCCCCCCCCCCCCCC(=O)O)C(=O)O)[C@@H](C)O)[C@@H](C)O)C(=O)N[C@@H](CC(C)C)C(=O)N1CCC[C@H]1C(=O)N1CCC[C@H]1C(=O)N[C@H](C(=O)N[C@@H](CC(N)=O)C(=O)N[C@H](C(=O)NCC(=O)N[C@@H](CO)C(=O)N[C@@H](CC(N)=O)C(=O)N[C@H](C(=O)N1C[C@H](O)C[C@H]1C(N)=O)[C@@H](C)O)C(C)C)[C@@H](C)O [M38] ({C16 diacid-γGlu}-ASQLSTAATQRLADFLRHSSNNLKPILPPTNVGSNT[Hyp]-NH2) |
| 182 | 0.017 | CC[C@H](C)[C@H](NC(=O)[C@H](CC(=O)O)NC(=O)[C@H](CCCNC(=N)N)NC(=O)[C@H](CC(=O)O)NC(=O)[C@H](CCCNC(=N)N)NC(=O)[C@H](CC(=O)O)NC(=O)[C@@H](NC(=O)[C@H](Cc1ccccc1)NC(=O)[C@H](Cc1c[nH]cn1)NC(=O)[C@H](CCCNC(=N)N)NC(=O)[C@H](CC(C)C)NC(=O)[C@H](Cc1ccccc1)NC(=O)[C@H](CC(=O)O)NC(=O)[C@H](C)NC(=O)[C@H](CC(C)C)NC(=O)[C@H](CCCNC(=N)N)NC(=O)[C@H](CCC(N)=O)NC(=O)[C@@H](NC(=O)[C@H](C)NC(=O)[C@H](C)NC(=O)[C@@H](NC(=O)[C@H](CO)NC(=O)[C@H](CC(C)C)NC(=O)[C@H](CCC(N)=O)NC(=O)[C@H](CO)NC(=O)[C@H](C)NC(=O)CC[C@H](NC(=O)CCCCCCCCCCCCCCC(=O)O)C(=O)O)[C@@H](C)O)[C@@H](C)O)[C@@H](C)O)C(=O)N[C@@H](CC(C)C)C(=O)N1CCC[C@H]1C(=O)N1CCC[C@H]1C(=O)N[C@H](C(=O)N[C@@H](CC(N)=O)C(=O)N[C@H](C(=O)NCC(=O)N[C@@H](CO)C(=O)N[C@@H](CC(N)=O)C(=O)N[C@H](C(=O)N1CCC[C@H]1C(N)=O)[C@@H](C)O)C(C)C)[C@@H](C)O [M23] ({C16 diacid-γGlu}-ASQLSTAATQRLADFLRHFTDRDRDILPPTNVGSNTP-NH2) |
